Reference: patent US20030166721A1, “Choline derivative for the treatment of alzheimer's disease” (priority 2000, published 2003)

Assays:
[1] = tested on: Wistar rats; experiment: EEG spectral qualitative and quantitative analysis in freely moving rats after i.p. administration; assay type: in vivo, rat; details: for EEG frequency band 0.25-3 Hz / EEG frequency band 3-6 Hz / EEG frequency band 6-9 Hz / EEG frequency band 9-12 Hz / EEG frequency band 12-16 Hz: after i.p. administration, % ± SEM; for Effect of atropine given 15 min before the compound: atropine pretreatment; for EEG total power (fronto-parietal cortex), Baseline: before i.p. injection (vol. 0.5 ml); for EEG total power (fronto-parietal cortex), Baseline / EEG total power (fronto-parietal cortex), 15′ / EEG total power (fronto-parietal cortex), 30′ / EEG total power (fronto-parietal cortex), 45′ / EEG total power (fronto-parietal cortex), 60′ / EEG total power (fronto-parietal cortex), 75′ / EEG total power (fronto-parietal cortex), 90′: mean ± SEM, 7 tests; for EEG total power (fronto-parietal cortex), 15′ / EEG total power (fronto-parietal cortex), 30′ / EEG total power (fronto-parietal cortex), 45′ / EEG total power (fronto-parietal cortex), 60′ / EEG total power (fronto-parietal cortex), 75′ / EEG total power (fronto-parietal cortex), 90′: i.p. (vol. 0.5 ml)
Protocol: Young male Wistar rats (200-260) were used in the experiments, housed in a standard temperature and humidity conditions, with food and water ad libitum. […] After surgery all animals were housed 48 h to allow a complete recovery. 48 Hours after electrode implantation, the animals, placed in a transparent box and freely moving, were connected with an electroencephalograph and the electrocortical activity was continuously monitored and recorded. […] Qualitative and quantitative analysis on the electrocortical activity EEG recording was subsequently carried out. The animals were divided in 4 groups, the first group acted as the control, the second received cytidine-5′-diphosphocholine (CDP-choline), the third and fourth received PC-1 and PC-2, respectively (pivaloylcholine iodide and pivaloyleholine trimethylacetate, respectively). The control group received an equal volume of saline solution by the same procedure. […] Statistical analysis was performed by analysis of variance (ANOVA) for multiple measurements followed, if significant, by the post-hoc Tuckey-Kramer test. A comparison between groups was performed to exclude any individual variability.

[2] = tested on: Wistar rats; experiment: Behavioural and EEG effects in rats at different doses; assay type: in vivo, rat
Protocol: Young male Wistar rats (200-260) were used in the experiments, housed in a standard temperature and humidity conditions, with food and water ad libitum.
The animals, anaesthetised with chloral hydrate (400 mg/kg) […], were stereotaxically implanted (Kopft Instruments) with cortical electrodes (n=4) onto the fronto-parietal region of the neocortex on both cerebral hemispheres, to record EEG. After surgery all animals were housed 48 h to allow a complete recovery.
48 Hours after electrode implantation, the animals, placed in a transparent box and freely moving, were connected with an electroencephalograph and the electrocortical activity was continuously monitored and recorded. After a 30 min control time, the compounds under test were intraperitoneally administered and EEG recording was continued for 90-120 min
EEG was recorded by computerised 24-channels apparatus (Vega 24, Galileo type, ESA-OTE Biomedica, Florence, Italy), while the spectrum activity was quantitatively analysed by a Berg Fourier analyser (ESA-OTE Biomedica, Florence, Italy). The total EEG power (0.25-16 Hz range) was divided into 5 variable frequency bands: δ 0.25-3 Hz, θ 3-6; α1 6-9; α2 9-12 and β12-16 Hz.
The EEG patterns and behavioral effects observed in the rat after administration of the choline derivatives and of the vehicle is reported in 5 Tab. 3. Such effects can be ascribed to the changes of EEG spectrum total power. An […] in EEG total power is related with the presence of slow frequency waves (synchronisation), whereas an […] thereof is related with the presence of rapid frequency waves (desynchronisation).

[3] = tested on: rats; experiment: Synergistic effect with tacrine: qEEG of neocortical activity in rats; assay type: in vivo, rat; details: n=7; for EEG power (qEEG of neocortical activity), 15″ / EEG power (qEEG of neocortical activity), 30″ / EEG power (qEEG of neocortical activity), 45″ / EEG power (qEEG of neocortical activity), 60″ / EEG power (qEEG of neocortical activity), 75″ / EEG power (qEEG of neocortical activity), 90″ / EEG power (qEEG of neocortical activity), 105″ / EEG power (qEEG of neocortical activity), 120″ / EEG power (qEEG of neocortical activity), 135″: rats i.p., PC-1/PC-2 15 μmol/2 ml/kg, THA 5 mg/kg 30 min before, atropine 0.1 mg/kg 15 min before; for EEG power (qEEG of neocortical activity), Baseline: before i.p. treatment
Protocol: Results reported in Table 5 show the synergistic effect of the combination of tacrine with the choline derivatives of the present invention.
Vehicle: 2 ml/Kg; all drugs were administered i.p., PC-1 and PC-2 at corresponding equimolar doses (15 μmol/2 ml/kg^−1); THA (tacrine) (5 mg/kg) was administered 30 min before compounds; atropine (0.1 mg/kg) was injected 15 min before PC-1 and PC-2. The number of animals was 7 per each group. Values represent EEG power (μV/s).

[4] = target: T1, Choline Specific Transport System (HUCT) (Rattus norvegicus, UniProt Q9JMD7); experiment: EEG after ICV Hemicholinium-3 (choline uptake blocker) pretreatment; assay type: in vivo; details: rats, ICV 1 μg-0.1 ng
T1 construct: from tissue; host or cells: brain of living Wistar rats (in vivo, ICV microinfusion, EEG read-out)
T1 sequence (Q9JMD7 1-580): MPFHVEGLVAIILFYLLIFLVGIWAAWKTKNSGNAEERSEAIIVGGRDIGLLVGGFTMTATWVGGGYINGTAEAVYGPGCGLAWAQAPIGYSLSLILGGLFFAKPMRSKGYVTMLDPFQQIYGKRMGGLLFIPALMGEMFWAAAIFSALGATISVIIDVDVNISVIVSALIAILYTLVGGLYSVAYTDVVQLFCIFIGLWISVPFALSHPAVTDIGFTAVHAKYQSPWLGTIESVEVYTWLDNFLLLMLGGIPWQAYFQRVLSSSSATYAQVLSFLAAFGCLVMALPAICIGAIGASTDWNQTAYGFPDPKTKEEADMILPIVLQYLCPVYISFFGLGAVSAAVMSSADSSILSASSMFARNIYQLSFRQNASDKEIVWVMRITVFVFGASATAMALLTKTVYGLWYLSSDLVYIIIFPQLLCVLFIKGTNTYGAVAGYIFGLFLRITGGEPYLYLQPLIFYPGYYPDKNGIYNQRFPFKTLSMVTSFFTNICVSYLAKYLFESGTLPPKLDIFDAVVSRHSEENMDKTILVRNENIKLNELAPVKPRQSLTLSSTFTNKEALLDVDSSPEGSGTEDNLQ
Protocol: FIG. 4B—Effect on EEG spectrum power after treatment with PC-1 (5 mg i.p.) administered 15 min after microinfusion of Hch3 (0.1 ng/0.5 μl) in the III ventricule. As in FIG. 4a, time (min) is reported in abscissa, the EEG spectrum power expressed as μV^2/s is reported in ordinate. Graphics report the EEG spectrum total power (0.25-16 Hz).

Row | Compound | Time to onset of EEG desynchronization and significant decrease in EEG total power ([1]; 5 mg i.p.) | EEG frequency band 0.25-3 Hz [1] | EEG frequency band 3-6 Hz [1] | EEG frequency band 6-9 Hz [1] | EEG frequency band 9-12 Hz [1] | EEG frequency band 12-16 Hz [1] | Effect of atropine given 15 min before the compound [1] | EEG total power (fronto-parietal cortex), Baseline [1] | EEG total power (fronto-parietal cortex), 15′ [1] | EEG total power (fronto-parietal cortex), 30′ [1] | EEG total power (fronto-parietal cortex), 45′ [1] | EEG total power (fronto-parietal cortex), 60′ [1] | EEG total power (fronto-parietal cortex), 75′ [1] | EEG total power (fronto-parietal cortex), 90′ [1] | Behaviour ([2]; 5 mg) | EEG Activity (change of EEG total power) ([2]; 5 mg) | Behaviour ([2]; 50 mg) | EEG Activity (change of EEG total power) ([2]; 50 mg) | EEG power (qEEG of neocortical activity), 15″ [3] | EEG power (qEEG of neocortical activity), 30″ [3] | also measured
1 | C[N+](C)(C)CCOP(=O)(O)OP(=O)([O-])OC[C@H]1O[C@@H](n2ccc(N)nc2=O)[C@H](O)[C@@H]1O [CDP-choline, cytidine-5′-diphosphocholine, reference compound] | 60 min | 3.8 ± 1.3(*) % | 19.2 ± 1.5(*) % | 31.5 ± 0.9% | 18.5 ± 1.7% | 20.5 ± 1.3% | antagonize the effects | 98 ± 3.6 | 93 ± 2.9 | 271 ± 3.2 | 89 ± 2.9 | 65 ± 2(*) | 95 ± 3.3 | 103 ± 2.6 | Alert response | Decrease | Sedation | No effects |  |  | Behaviour ([2]; 1 mg): No effects; EEG Activity (change of EEG total power) ([2]; 1 mg): No effects; Behaviour ([2]; 25 mg): Sedation; EEG Activity (change of EEG total power) ([2]; 25 mg): Increase
2 | pivaloylcholine trimethylacetate [PC-2] | ≤ 15 min | 2.4 ± 1.3(**) % | 21.3 ± 0.9% | 22.3 ± 1.3% | 13.5 ± 0.7% | 22.5 ± 1.6(*) % | antagonize the effects | 93 ± 3.5 | 50 ± 1.9(**) | 55 ± 2.5(*) | 90 ± 3.3 | 132 ± 1.5(*) | 96 ± 2.7 | 90 ± 3.6 | Alert response | Decrease | Convulsions and death (50%) | Peaks | 58.5 μV/s | 64.5 μV/s | EEG power (qEEG of neocortical activity), 45″ [3]: 98 μV/s; EEG power (qEEG of neocortical activity), 60″ [3]: 103 μV/s; EEG power (qEEG of neocortical activity), 75″ [3]: 97.5 μV/s; EEG power (qEEG of neocortical activity), 90″ [3]: 110.3 μV/s; EEG power (qEEG of neocortical activity), 105″ [3]: 124 μV/s; EEG power (qEEG of neocortical activity), 120″ [3]: 120.5 μV/s; EEG power (qEEG of neocortical activity), 135″ [3]: 117.5 μV/s; EEG effect with tacrine given 30 min before ([3]; rats, THA 5 mg/Kg i.p. 30 min before 15 μmol i.p.): long-lasting EEG desynchronization and significant decrease in EEG spectrum total power; EEG power (qEEG of neocortical activity), Baseline ([3]; rats): 105 μV/s; Change of slow EEG spectrum components (FIG. 3) [1]: decrease in slow components (delta and theta) of the spectrum; Duration of the decrease in EEG total power ([1]; 5 mg i.p.): about 30 min; EEG 60 min after administration ([1]; 5 mg i.p., 60 min): rapid frequency activity (about 16 Hz) and significant increase (P<0.01) in EcoG total power
3 | C[N+]1(C)CCOC(O)(c2ccc(-c3ccc(C4(O)C[N+](C)(C)CCO4)cc3)cc2)C1.[Br-].[Br-] (centres unmarked) [Hch3, Hemicholinium-3, reference compound] |  |  |  |  |  |  |  |  |  |  |  |  |  |  |  |  |  |  |  |  | Behavioural and EEG effect of ICV administration [4]: behavioural sedation and sleep, EEG synchronization and increase in EEG total power
4 | Nc1c2c(nc3ccccc13)CCCC2 [THA, tacrine, reference compound] |  |  |  |  |  |  |  |  |  |  |  |  |  |  |  |  |  |  | 72.5 μV/s | 68 μV/s | EEG power (qEEG of neocortical activity), 45″ [3]: 75.5 μV/s; EEG power (qEEG of neocortical activity), 60″ [3]: 97.5 μV/s; EEG power (qEEG of neocortical activity), 75″ [3]: 122 μV/s; EEG power (qEEG of neocortical activity), 90″ [3]: 129.5 μV/s; EEG power (qEEG of neocortical activity), 105″ [3]: 135 μV/s; EEG power (qEEG of neocortical activity), 120″ [3]: 137 μV/s; EEG power (qEEG of neocortical activity), 135″ [3]: 119.5 μV/s; EEG power (qEEG of neocortical activity), Baseline ([3]; rats): 118 μV/s
